Measured values from publication PMC5748279, “Novel Antitubercular 6-Dialkylaminopyrimidine Carboxamides from Phenotypic Whole-Cell High Throughput Screening of a SoftFocus Library: Structure–Activity Relationship and Target Identification Studies” (Journal of Medicinal Chemistry, 2017).
Converted amounts (≈) assume the structure as drawn. Like-named read-outs stand apart in the source and are kept apart here.

How the values were obtained:
physchem [1] = format: physicochemical
Procedure: (§1) The kinetic solubility assay was performed using a miniaturised shake flask method. 10 mM stock […]
(§2) DMSO, and to spike (1:50) duplicate aqueous samples of FaSSIF (simulating fasting state biorelevant media, pH 6.5), with a final DMSO concentration of 2%. After shaking for 2 hours at 25 °C, the solutions were filtered and analysed by means of HPLC,DAD (Agilent 1200 Rapid Resolution HPLC with a diode array detector). Best fit calibration curves were constructed using the calibration standards, which were used to determine the aqueous samples’ solubility.13
(§3) 4.2) Microsomal stability
(§4) The metabolic stability assay was performed in duplicate in a 96,well micro titre plate. The test compounds (0.1 µM) were incubated individually in mouse, rat and pooled human liver […]
(§5) the cofactor NADPH (1 mM). Reactions were quenched by adding 300 µL of ice cold acetonitrile containing internal standard (carbamazepine, 0.0236 µg/mL). Test compounds in the supernatant were analysed by means of LC,MS/MS (Agilent Rapid Resolution HPLC, AB SCIEX 4000 QTRAP MS) for the disappearance of parent compound. Metabolite searches were not conducted during the metabolic stability assay.14
(§6) 4.3) Plasma protein binding (PPB) assay
The plasma protein binding assay was performed in a 96,well micro titre plate with pooled human plasma, spiked with test compound (5 µM). An aliquot was immediately removed and quenched using ice cold acetonitrile containing internal standard (carbamazepine, 0.0236 µg/mL), and placed in the freezer. This served as the total concentration sample. After pre,incubation (37 °C for 1 hour) duplicate aliquots of the spiked plasma were transferred to ultra,centrifugation tubes, […]

in vitro [2] = format: in vitro ADME; details: human, plasma; PPB assay; read-out: free fraction in human plasma
Procedure: as §1, §2, §3
The metabolic stability assay was performed in duplicate in a 96,well micro titre plate. […]
the cofactor NADPH (1 mM). […] Test compounds in the supernatant were analysed by means of LC,MS/MS (Agilent Rapid Resolution HPLC, AB SCIEX 4000 QTRAP MS) for the disappearance of parent compound. […]
and ultracentrifuged for 4 hours (42000 rpm, 37 °C, Beckman Optima L,80XP). Analyte concentration of all compounds and sample types were determined by means of LC,MS/MS (Agilent Rapid Resolution HPLC, AB SCIEX 4000 QTRAP MS). […]
The lipophilicity assay was performed in triplicate using a shake,flask procedure. […] The samples were analysed by HPLC,DAD (Agilent 1200 Rapid Resolution HPLC with a diode array detector) and the amount of compound in the buffer and n, octanol were used to determine the partition coefficient, LogD7.4.15 […]

[3] = format: in vitro ADME
Procedure: and ultracentrifuged for 4 hours (42000 rpm, 37 °C, Beckman Optima L,80XP). Analyte concentration of all compounds and sample types were determined by means of LC,MS/MS (Agilent Rapid Resolution HPLC, AB SCIEX 4000 QTRAP MS).
4.4) Lipophilicity (LogD7.4)
The lipophilicity assay was performed in triplicate using a shake,flask procedure. 10 mM stock solutions of each test compound were used to spike (100 µM) a 1:1 mixture of phosphate buffer (pH 7.4) and n,octanol. The solutions were shaken vigorously (1500 rpm) on an orbital shaker for 3 hours at room temperature. Thereafter the samples were centrifuged in order to fully separate the two immiscible fluids. The samples were analysed by HPLC,DAD (Agilent 1200 Rapid Resolution HPLC with a diode array detector) and the amount of compound in the buffer and n, octanol were used to determine the partition coefficient, LogD7.4.15
4.5) Parallel Artificial Membrane Permeability Assay (PAMPA):
The PAMPA assay was performed in triplicate in 96,well MultiScreen Filter plates (Millipore, 0.4 µM PCTE Membrane). Membrane filters were pre,coated with 5% hexadecane in hexane and allowed to dry prior to the assay. Membrane integrity marker, Lucifer yellow was added to the apical wells of the pre,coated MultiScreen plate donor/drug solutions containing test compound.
Phosphate buffer (pH7.4) was added to the 96,well acceptor plate. 10 mM test compound was used to spike (1 µM) the donor buffer at physiologically relevant pH's (pH 4, 6.5 and 8), the donor plate slotted into the acceptor plate and incubated (4 hours at room temperature) with gentle shaking (40,50 rpm). Following the incubation, sample from the acceptor wells and theoretical equilibrium wells were transferred to the analysis plate and matrix matched with blank donor buffer. Acetonitrile containing internal standard (carbamazepine, 0.0236 µg/mL) was added to all samples and they were analysed by LC,MS/MS (Agilent Rapid Resolution HPLC, AB SCIEX 4500 MS). The normalised (analyte/internal) peak areas were used to calculate the apparent permeability (Papp). Membrane integrity was assessed by calculating the Papp of Lucifer Yellow […]
chemosensitivity. […]. Thus only viable cells […]
formazan. Formazan crystals are dissolved in DMSO. The test samples were tested in triplicate on […]
experiment. […] Emetine was used […]
as the reference drug in all experiments. The initial concentration of emetine was 100 µg/mL, […]
lowest being 0.001 µg/mL. […] The […]
(§7) the cell viability (data not shown).
GraphPad Prism v.4 software. […]
expressing the full length hERG channel. Single cell ionic currents were measured in the […]

mice = experiment: Toxicity observed in mice on oral dosing; format: in vivo; details: higher doses
in vivo = details: male, C57/BL6, mouse
[4] = Caseum binding using surrogate caseum
BCG_3193 (Rv3169) = BCG_3193 (Rv3169) (Mycobacterium bovis BCG, UniProt A0A1R3Y3B6); experiment: biochemical; format: binding
BCG_3827 (Rv3768) = format: binding, Mycobacterium bovis BCG
[5] = target: Mycobacterium bovis BCG extract proteins (Mycobacterium bovis BCG, UniProt A0A0H3M9Z0); experiment: biochemical; format: binding
[6] = target: Mycobacterium bovis BCG extract proteins (Mycobacterium bovis BCG, UniProt A0A1R3Y5H4); experiment: biochemical; format: binding
[7] = target: Mycobacterium bovis BCG extract proteins (Mycobacterium bovis BCG, UniProt A0A1R3Y5J1); experiment: biochemical; format: binding
[8] = target: Mycobacterium bovis BCG extract proteins (Mycobacterium bovis BCG, UniProt A0A1R3Y5K6); experiment: biochemical; format: binding
[9] = target: Mycobacterium bovis BCG extract proteins (Mycobacterium bovis BCG, UniProt A0A1R3Y5N8); experiment: biochemical; format: binding
[10] = target: Mycobacterium bovis BCG extract proteins (Mycobacterium bovis BCG, UniProt A0A1R3Y6U4); experiment: biochemical; format: binding
[11] = target: Mycobacterium bovis BCG extract proteins (Mycobacterium bovis BCG, UniProt A1KLS7); experiment: biochemical; format: binding
[12] = target: Mycobacterium bovis BCG extract proteins (Mycobacterium bovis BCG, UniProt A1KQG9); experiment: biochemical; format: binding
[13] = target: Mycobacterium bovis BCG extract proteins (Mycobacterium bovis BCG, UniProt O69687); experiment: biochemical; format: binding
[14] = target: Mycobacterium bovis BCG extract proteins (Mycobacterium bovis BCG, UniProt P0A4Z9); experiment: biochemical; format: binding
[15] = target: Mycobacterium bovis BCG extract proteins (Mycobacterium bovis BCG, UniProt P9WGQ7); experiment: biochemical; format: binding
[16] = target: Mycobacterium bovis BCG extract proteins (Mycobacterium bovis BCG, UniProt P9WKC7); experiment: biochemical; format: binding
[17] = target: Mycobacterium bovis BCG extract proteins (Mycobacterium bovis, UniProt A0A1R3Y5J0); experiment: biochemical; format: binding
[18] = test system: Mycobacterium bovis BCG extract proteins; experiment: biochemical; format: binding
[19] = test system: Mycobacterium tuberculosis (H37RvMa); experiment: microbe, parasite or virus in culture; parameters: MIC99 by standard broth microdilution against M. tuberculosis H37Rv; details: read-out: MIC99 7H9/ADC (æM)
[20] = test system: Mycobacterium tuberculosis (H37RvMa); experiment: microbe, parasite or virus in culture; parameters: MIC99 by standard broth microdilution against M. tuberculosis H37Rv; details: sheet table;, MIC99, GAST/Fe medium, read-out: MIC99 GAST/Fe (æM)
physchem [21] = details: sheet table;; kinetic solubility, pH 7.4; aqueous buffer pH 7.4; Kinetic solubility at pH 7.4; read-out: Solubility (æM)
Procedure: as §1, §2, §3, §4, §5, §6
The plasma protein binding assay was performed in a 96,well micro titre plate with pooled human plasma, spiked with test compound (5 µM). […]

in vitro [22] = details: african green monkey; sheet table;; IC50 on Vero cells, MTT; read-out: Cytotoxicity (æM)
Procedure: chemosensitivity. […]. Thus only viable cells
formazan. Formazan crystals are dissolved in DMSO. The test samples were tested in triplicate on
experiment. […] Emetine was used
as the reference drug in all experiments. The initial concentration of emetine was 100 µg/mL,
lowest being 0.001 µg/mL. […] The
as §7
GraphPad Prism v.4 software.
Electrophysiologi Table 2 SAR on the Central Core a Kinetic solubility at pH 7.4. b IC50 on Vero cell lines.

CN(Cc1ccc(C(F)(F)F)nc1)c1cc(C(=O)Nc2nncs2)ncn1 [Compound 52, 6-(Methyl((6-(trifluoromethyl)pyridin-3-yl)methyl)amino)-N-(1,3,4-thiadiazol-2-yl)pyrimidine-4-carboxamide]
solubility at 2 h (physchem [1]; pH 6.5, fasted-state simulated intestinal fluid, read-out: FassiF solubility at pH 6.5): > 100 µM | solubility kinetic at 2 h (physchem [1]; pH 7.4, pH 7.4): > 100 µM | fraction unbound at 4 h, 5 µM (in vitro [2]): ≤ 0.3 | PAMPA log Papp [3]: –3.9 | toxicity to mice (mice): toxic to mice when dosed orally above 50 mg/kg | AUC(0-inf) at 24 h (in vivo; iv, 5 mg/kg): 35.1 µM·h | clearance at 24 h (in vivo; iv, 5 mg/kg): 6.6 mL/min/kg | AUC(0-inf) at 24 h (in vivo; po, 20 mg/kg): 93.6 µM·h | half-life (in vivo; po, 20 mg/kg): 3 h | caseum distribution unbound [4]: 3.6%

O=C(Nc1ccccc1)c1ccc(=O)n(Cc2ccc(F)cc2)c1 [Compound 25, 1-(4-Fluorobenzyl)-6-oxo-N-phenyl-1,6-dihydropyridine-3-carboxamide]
binding of BCG_3193 to the compound beads in presence of free compound (BCG_3193 (Rv3169)): no effect | IC50 (BCG_3827 (Rv3768)): ≥ 30 µM | binding of BCG_3827 to the compound beads in presence of free compound (BCG_3827 (Rv3768)): no effect | pIC50 (BCG_3827 (Rv3768)): ≤ 4.52 | relative abundance 10: Compound competition 0.029 µM 25 (BCG_3827 (Rv3768); 0.029 µM): 1.06 | relative abundance 9: Compound competition 0.117 µM 25 (BCG_3827 (Rv3768); 0.117 µM): 0.70 | relative abundance 8: Compound competition 0.47 µM 25 (BCG_3827 (Rv3768); 0.47 µM): 1.39 | relative abundance 7: Compound competition 1.88 µM 25 (BCG_3827 (Rv3768); 1.88 µM): 1.36 | relative abundance 6: Compound competition 7.5 µM 25 (BCG_3827 (Rv3768); 7.5 µM): 1.52 | relative abundance 5: Compound competition 30 µM 25 (BCG_3827 (Rv3768); 30 µM): 1.12 | IC50 [5]: ≥ 30 µM | pIC50 [5]: ≤ 4.52 | IC50 [6]: ≥ 30 µM | pIC50 [6]: ≤ 4.52 | IC50 [7]: ≥ 30 µM | pIC50 [7]: ≤ 4.52 | IC50 ([8]; IC50): ≥ 30 µM | IC50 ([8]; pIC50): ≥ 30.2 µM | IC50 ([9]; IC50): ≥ 30 µM | IC50 ([9]; pIC50): ≥ 30.2 µM | IC50 ([10]; IC50): ≥ 30 µM | IC50 ([10]; pIC50): ≥ 30.2 µM | IC50 [11]: ≥ 30 µM | pIC50 [11]: ≤ 4.52 | IC50 [12]: ≥ 30 µM | pIC50 [12]: ≤ 4.52 | IC50 [13]: ≥ 30 µM | pIC50 [13]: ≤ 4.52 | IC50 [14]: ≥ 30 µM | pIC50 [14]: ≤ 4.52 | IC50 ([15]; IC50): ≥ 30 µM | IC50 ([15]; pIC50): ≥ 30.2 µM | IC50 ([16]; IC50): ≥ 30 µM | IC50 ([16]; pIC50): ≥ 30.2 µM | IC50 ([17]; IC50): ≥ 30 µM | IC50 ([17]; pIC50): ≥ 30.2 µM | IC50 [18]: ≥ 30 µM | pIC50 [18]: ≤ 4.52

CC(=O)N1CCN(c2ccc(NC(=O)c3cc(N(C)Cc4ccc(C(F)(F)F)nc4)ncn3)cn2)CC1 [compound 44]
MIC99 [19]: 4.7 µM (≈ 2.42 µg/mL) | MIC99 [20]: 2.3 µM (≈ 1.18 µg/mL) | solubility at 2 h (physchem [21]): < 5 µM | CC50 (in vitro [22]): > 50 µM

[C-]#[N+]c1ccc(CN(C)c2cc(C(=O)Nc3ccccc3)ncn2)cc1 [compound 16]
MIC99 [19]: > 50 µM | solubility at 2 h (physchem [21]): < 5 µM
